From patent publication US20160106102A1, “KNOWN AND NEW HETEROCYCLIC COMPOUNDS AS PEST CONTROL AGENTS” (BAYER CROPSCIENCE AKTIENGESELLSCHAFT, priority 2013, published 2016)
Read-outs that look alike come from different tables or passages of the source.

Key:
[1] = tested on: Myzus persicae; assay: Myzus persicae - spray test; format: in vivo; conditions: application rate of 500 g/ha; after 6 days; sprayed Chinese cabbage leaf discs infested by all stages; 100% = all aphids killed
Protocol: Myzus persicae—spray test Solvent: 78 parts by weight of acetone • • 1.5 parts by weight of dimethylformamide Emulsifier: 0.5 part by weight of alkylaryl polyglycol ether To produce an appropriate active ingredient formulation, 1 part by weight of active ingredient is mixed with the specified amounts of solvent and emulsifier, and the concentrate is diluted to the desired concentration with emulsifier-containing water. Discs of Chinese cabbage leaves (Brassica pekinensis) infested by all stages of the green peach aphid (Myzus persicae) are sprayed with an active ingredient formulation of the desired concentration. After 6 days, the efficacy in % is determined. 100% means that all the aphids have been killed; 0% means that no aphids have been killed.

[2] = tested on: Myzus persicae; assay: Myzus persicae - sachet test; format: in vivo; conditions: 100% = all animals killed
Procedure, shortened: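 Green peach aphids feed through a sealed sachet on nutrient medium containing the water-diluted formulation (solvents: 2% N-methylpyrrolidone, 2% diacetone alcohol). Percent mortality read after the chosen time; 100% means all animals killed.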

[3] = log P determination by LC-MS in the acidic range; format: physicochemical
Excerpt: The LC-MS determination in the acidic range is effected at pH 2.7 using 0.1% aqueous formic acid and acetonitrile (contains 0.1% formic acid) as eluents, linear gradient from 10% acetonitrile to 95% acetonitrile. Alternatively, the determination is effected in the acidic range at pH 2.3 using 0.1% aqueous phosphoric acid and acetonitrile as eluents; linear gradient from 10% acetonitrile to 95% acetonitrile.

[4] = application rate of 6 ppm in nutrient medium
[5] = application rate of 30 ppm in nutrient medium
[6] = Myzus persicae, application rate of 30 ppm in nutrient medium, read-out: efficacy (kill in %)
[7] = pH 2.7, LC-MS in the acidic range, read-out: log P (acid)
[8] = pH 2.7, values given in the synthesis examples and NMR lists, read-out: HPLC-MS: log P
[9] = Table 2, compounds of the formula (I-2), acidic range pH 2.7 or pH 2.3

log P (acid) ([3]; LC-MS in the acidic range) | Compound | efficacy (kill in %) [2, 4] | efficacy (kill in %) [2, 5] | further results
 | Cc1cc(Cn2nc(NC(=O)c3cccnc3)cc2C)oc(=O)c1 [Compound I-1-154] | 100% | 100% | efficacy in % [1]: 90%
1.76 | Cc1cc(NC(=O)c2cncnc2)nn1Cc1ccccc1 [Compound I-1-66] |  | 100% | 
2.04 | Cc1cc(C)nc(-n2nc(NC(=O)c3cncc(F)c3)cc2C)n1 [Compound I-1-132] |  | 100% | 
1.31 | Cc1cc(NC(=O)c2cccnc2)nn1C(C)(C)C#N [Compound I-1-219] | 100% | 100% | 
0.74 | Cc1cc(NC(=O)c2cccnc2)nn1CS(=O)(=O)c1ncccn1 [Compound I-1-236] | 100% | 100% | 
1.67 | CCc1cc(NC(=O)c2cccnc2)nn1Cc1ccc(Cl)nc1 [Compound I-1-58] | 80% | 100% | 
1.6 | Cc1cc(C)nc(-n2nc(NC(=O)c3cccnc3)cc2C)n1 [Compound I-1-139] | 100% | 100% | 
2.31 | CCN(CC)C(=O)n1nc(NC(=O)c2cccnc2)cc1C [Compound I-1-290] | 100% | 100% | 
1.6 | Cc1nc2c(c(NC(=O)c3cncc(F)c3)nn2C)c(C)c1C [Compound I-1-57] | 100% | 100% | 
1.86 | O=C(Nc1ccn(Cc2ncc(C(F)(F)F)cc2Cl)n1)c1cccnc1 [Compound I-1-116] | 100% | 100% | 
 | CCc1cc(NC(=O)c2cccnc2)nn1Cc1ccccc1 [Compound I-1-35, N-(1-Benzyl-5-ethyl-1H-pyrazol-3-yl)nicotinamide] |  |  | pest or weed control at 30 ppm [2, 6]: 100%; chromatographic logP [3, 7]: 2.03; chromatographic logP [3, 8]: 2.03
1.57 | COc1cccc(Cn2ccc(NC(=O)c3cccnc3)n2)c1 [Compound I-1-74] | 100% | 100% | 
0.5 | Cc1cc(NC(=O)c2cccnc2)nn1C[S+]([O-])c1ncccn1 (centres unmarked) [Compound I-1-235] | 80% | 100% | 
1.45 | Cc1cc(NC(=O)c2cccnc2)nn1S(=O)(=O)c1cccnc1 [Compound I-1-280] | 80% | 100% | 
 | O=C(Nc1ncn(Cc2cccc(Cl)c2)n1)c1cccnc1 [Compound I-2-19] |  | 100% | log P (acid) [3, 9]: 1.33
1.05 | COC(=O)c1cc(NC(=O)c2cccnc2)nn1C [Compound I-1-138] |  | 100% | 
2.04 | Cc1cc(NC(=O)c2cccnc2)nn1C(=O)NCc1ccccc1F [Compound I-1-326] | 100% | 100% | 
3.26 | Cc1cc(N(Cc2nc(-c3ccccc3)no2)C(=O)c2cccnc2)nn1Cc1nc(-c2ccccc2)no1 [Compound I-1-305] |  | 100% | 
 | CSc1nc(NC(=O)c2cccnc2)nn1C [Compound I-2-26] |  | 100% | log P (acid) [3, 9]: 0.32
0.95 | Cc1cc(NC(=O)c2cccnc2)nn1C(=O)NCc1ncccn1 [Compound I-1-334] | 100% | 100% | 
 | CCc1nc(NC(=O)c2cccnc2)nn1C [Compound I-2-17] |  | 100% | log P (acid) [3, 9]: 0.01
1.77 | O=C(Nc1cc(C2CC2)n(Cc2ccc(Cl)nc2)n1)c1cccnc1 [Compound I-1-29] | 100% | 100% | 
2.67 | Cc1cc(NC(=O)c2cncc(Br)c2)nn1Cc1ccc(F)cc1 [Compound I-1-83] |  | 100% | 
1.29 | Cc1cc(NC(=O)c2cccnc2)nn1C(=O)N1CCCC1 [Compound I-1-161] | 80% | 100% | 

log P (acid) ([3]; LC-MS in the acidic range) | Compound | efficacy (kill in %) [2, 4] | efficacy (kill in %) [2, 5] | further results
2.13 | Cc1cc(NC(=O)c2cccnc2)nn1C(=O)N(C)S(=O)(=O)c1ccccc1 [Compound I-1-263] | 100% | 100% | 
1.59 | COc1cc(OC)nc(Cn2nc(NC(=O)c3cccnc3)cc2C)n1 [Compound I-1-53] | 100% | 100% | 
1.29 | CCS(=O)(=O)n1nc(NC(=O)c2cccnc2)cc1C [Compound I-1-278] |  | 100% | 
1.83 | Cc1cc(NC(=O)c2ccnnc2)nn1-c1ccccn1 [Compound I-1-249] |  | 100% | 
 | Cc1ccccc1Cn1cnc(NC(=O)c2cccnc2)n1 [Compound I-2-23] |  | 100% | log P (acid) [3, 9]: 1.23
1.05 | Cc1cc(NC(=O)c2cccnc2)nn1Cn1nc(C)n(C2CC2)c1=O [Compound I-1-146] | 100% | 100% | 
 | Cc1nn(-c2ccccn2)nc1NC(=O)c1cccnc1 [Compound I-3-1, N-[5-Methyl-2-(pyridin-2-yl)-2H-1,2,3-triazol-4-yl]nicotinamide] |  |  | pest or weed control at 6 ppm ([2]; Myzus persicae, application rate of 6 ppm in nutrient medium, read-out: efficacy (kill in %)): 100%; pest or weed control at 30 ppm [2, 6]: 100%; chromatographic logP ([3]; reversed-phase HPLC column (C18), pH 2.7, Table 3, HPLC on reversed-phase column (C 18), 55° C., acidic range (pH 2.7 or pH 2.3), read-out: log P (acid)): 1.08; chromatographic logP ([3]; reversed-phase HPLC column (C18), pH 2.7, values given in the synthesis examples and NMR lists, read-out: HPLC-MS: log P): 1.08
3.54 | CC(C)(C)c1ccc(Cn2ccc(NC(=O)c3ccc(Cl)nc3)n2)cc1 [Compound I-1-86] |  | 100% | 
2.34 | Cc1cc(NC(=O)c2cccnc2)nn1C(=O)NCc1ccc(Cl)cc1 [Compound I-1-325] | 100% | 100% | 
1.83 | Cc1cc(NC(=O)c2cccnc2)nn1CC=C(Cl)Cl [Compound I-1-238] | 100% | 100% | 
1.61 | Cc1cc(NC(=O)c2cccnc2)nn1Cc1ccc2nsnc2c1 [Compound I-1-339] |  | 100% | 
1.77 | Cc1cc(NC(=O)c2cccnc2)nn1CC(F)(F)c1ccc(F)cn1 [Compound I-1-294] |  | 100% | 
1.99 | Cc1cc(NC(=O)c2cccnc2)nn1C(=O)NC(C)(C)C [Compound I-1-319] | 100% | 100% | 
 | CC(C)n1ncc(NC(=O)c2cccnc2)n1 [Compound I-3-10] |  | 100% | log P (acid) ([3]; Table 3, HPLC on reversed-phase column (C 18), 55° C., acidic range (pH 2.7 or pH 2.3)): 1.09
 | Cc1cc(NC(=O)c2ccnnc2)nn1Cc1ccccc1 [Compound I-1-79, N-(1-Benzyl-5-methyl-1H-pyrazol-3-yl)pyridazine-4-carboxamide] |  |  | pest or weed control at 30 ppm [2, 6]: 100%; chromatographic logP [3, 7]: 1.67; chromatographic logP [3, 8]: 1.67
3.18 | Cc1cc(NC(=O)c2cnc(Cl)c(Cl)c2)nn1Cc1ccccc1 [Compound I-1-100] |  | 100% | 
1.57 | Cc1cc(NC(=O)c2cccnc2)nn1Cc1nnc(-c2ccccc2)o1 [Compound I-1-299] | 100% | 100% | 
1.65 | O=C(Nc1ccn(Cc2cc(F)ccc2F)n1)c1cccnc1 [Compound I-1-90] | 100% | 100% | 
1.88 | Cc1cc(NC(=O)c2cccnc2)nn1Cc1ccc(F)cc1 [Compound I-1-62] | 100% | 100% | 
2.39 | Cc1cc(NC(=O)c2cccnc2)nn1C(=O)NCc1cccc(Cl)c1 [Compound I-1-324] | 100% | 100% | 
1.58 | O=C(Nc1ccn(Cc2ccccc2F)n1)c1cccnc1 [Compound I-1-88] | 100% | 100% | 
1.65 | Cc1cc(NC(=O)c2cccnc2)nn1C(=O)NCC1CC1 [Compound I-1-316] | 100% | 100% | 
1.77 | Cc1cc(NC(=Nc2ccc(Cl)cc2Cl)c2cccnc2)nn1C [Compound I-1-232] |  | 100% | 
